Assay results taken from US20040260318A1, “Anastomotic connector devices” (Angiotech International AG, priority 2003, published 2004).

Tests used:
[1] = test system: Primary human smooth muscle cells; experiment: Screening assay for smooth muscle cell migration (Boyden chamber, rhPDGF-BB chemotaxis); format: cell-based; conditions: 4 hours migration toward rhPDGF-BB 10 ng/mL, FIG. 8
[2] = test system: AP-1 DNA binding activity; experiment: IL-1 induced AP-1 DNA binding activity, gel mobility shift assay; format: cell-based; conditions: chondrocyte lysates, pretreated at 10^−7 to 10^−5 M for 24 hours
[3] = Solubility in water; format: physicochemical
[4] = test system: AP-1 transcriptional activity; experiment: IL-1 stimulated AP-1 driven CAT reporter gene activity in chondrocytes; format: cell-based; conditions: transfected chondrocytes, concentration dependent, 10^−7 to 10^−5 M
[5] = test system: collagenase (MMP-1) mRNA; experiment: IL-1 induced MMP-1 (collagenase) mRNA expression in chondrocytes, Northern blot
[6] = test system: Chick Chorioallantoic Membrane; experiment: Chick chorioallantoic membrane (CAM) angiogenesis assay; conditions: for Inhibition/n: 48 hours
[7] = test system: stromelysin (MMP-3) mRNA; experiment: IL-1 induced MMP-3 (stromelysin) mRNA expression in chondrocytes, Northern blot
[8] = chondrocytes pretreated for 24 hours, IL-1 induced

IC50 [1]: 760 pM | IL-1 induced AP-1 binding activity to DNA [2]: decreased | solubility in water [3]: insoluble in water | inhibition of collagenase mRNA expression ([5]; at 10^−5 M): complete inhibition | levels of collagenase mRNA [5, 8]: significantly reduced
SMILES: CC(=O)O[C@H]1C(=O)[C@@]2(C)[C@H]([C@H](OC(=O)c3ccccc3)[C@]3(O)C[C@H](OC(=O)[C@H](O)[C@@H](NC(=O)c4ccccc4)c4ccccc4)C(C)=C1C3(C)C)[C@]1(OC(C)=O)CO[C@@H]1C[C@@H]2O [paclitaxel, 5β,20-Epoxy-1,2Alpha,4,7β,10β,13Alpha-hexahydroxytax-11-en-9-one-4,10-diacetate-2-benzoate-13-(Alpha-phenylhippurate)]
IL-1 induced AP-1 reporter gene CAT activity [4]: reduced | concentration inhibiting collagenase expression in vitro [5]: 10^−6 M | Inhibition/n ([6]; 0.25 ug in methylcellulose (10 ul) disk, CAMs with positive antiangiogenesis response / n): 2/11 | Inhibition/n ([6]; 0.5 ug in methylcellulose (10 ul) disk): 6/11 | Inhibition/n ([6]; 1 ug in methylcellulose (10 ul) disk): 6/15 | Inhibition/n ([6]; 5 ug in methylcellulose (10 ul) disk): 20/27 | Inhibition/n ([6]; 10 ug in methylcellulose (10 ul) disk): 16/21 | Inhibition/n ([6]; 30 ug in methylcellulose (10 ul) disk): 31/31 | angiogenesis in the CAM ([6]; 48 hours after application): inhibited | avascular gradient scale, maximal avascular zone ([6]; within 48 hours, depending on concentration): 3 | concentration inhibiting stromelysin expression in vitro [7]: 10^−6 M | inhibition of stromelysin mRNA expression ([7]; at 10^−5 M): complete inhibition | levels of stromelysin mRNA [7, 8]: significantly reduced
